Counter-ions that a name gives are not always drawn. Each block holds one compound with its values, some of them ahead of it.
What was measured:
[1] = Inhibition of actin (unknown origin) polymerization incubated for 20 mins in presence of ATP by ELISA analysis; design: species or system Homo sapiens
MDA-MB-231 = assay: Anticancer activity against human MDA-MB-231 cells assessed as inhibition of cell growth incubated for 72 hrs by MTT assay; assay type: functional, cell-based; details: MDA-MB-231, 72 h
[2] = Inhibition of actin (unknown origin) polymerization at 100 nM incubated for 20 mins in presence of ATP by ELISA analysis relative to control; details: Homo sapiens
MCF7 [3] = assay: Anticancer activity against human MCF7 cells assessed as inhibition of cell growth incubated for 72 hrs by MTT assay; assay type: functional, cell-based; details: MCF7, 72 h
Homo sapiens = species on record: Homo sapiens; assay: Inhibition of actin (unknown origin) polymerization at 1 uM incubated for 20 mins in presence of ATP by ELISA analysis relative to control
A549 = assay: Anticancer activity against human A549 cells assessed as cell growth inhibition; assay type: functional, cell-based
HT-29 = assay: Anticancer activity against human HT-29 cells assessed as cell growth inhibition; assay type: functional, cell-based
P388 = assay: Anticancer activity against mouse P388 cells assessed as cell growth inhibition; assay type: functional, cell-based
KB 3-1 = assay: Anticancer activity against human KB 3-1 cells assessed as inhibition in cell growth; assay type: functional, cell-based
HeLa = assay: Anticancer activity against human HeLa cells assessed as inhibition of cell growth; assay type: functional, cell-based
HCT-116 [4] = assay: cells; details: Homo sapiens
Description: Anticancer activity against human HCT-116 cells assessed as inhibition of cell growth by MTT assay

HepG2 [5] = assay: cells; details: Homo sapiens
Description: Anticancer activity against human HepG2 cells assessed as inhibition of cell growth by MTT assay

HCT-116 [6] = assay: Anticancer activity against human HCT-116 cells assessed as inhibition of cell growth incubated for 72 hrs by SRB assay; assay type: functional, cell-based; details: HCT-116, 72 h
MCF7 [7] = assay: Anticancer activity against human MCF7 cells assessed as inhibition of cell growth incubated for 72 hrs by SRB assay; assay type: functional, cell-based; details: MCF7, 72 h
HepG2 [8] = assay: Anticancer activity against human HepG2 cells assessed as inhibition of cell growth incubated for 72 hrs by SRB assay; assay type: functional, cell-based; details: HepG2, 72 h

SMILES: CO[C@]1([C@@H]2CSC(=O)N2C(=O)c2ccccc2)C[C@H]2C[C@@H](CC[C@H](C)/C=C\C=C\CC/C(C)=C\C(=O)O2)O1
IC50 [1]: 834 nM
IC50 (MDA-MB-231): 4480 nM
inhibition [2]: 17%
IC50 (MCF7 [3]): 550 nM
inhibition (Homo sapiens): 53%

SMILES: COC(=O)[C@@H](C)[C@@H]1CC[C@](C)(CCC(=O)C(C)(C)CCCC(C)=O)OO1 [DIACARPEROXIDE B]
IC50 (A549): ≥ 1 µg/mL
IC50 (HT-29): ≥ 1 µg/mL
IC50 (P388): ≥ 1 µg/mL

SMILES: CO[C@]1([C@@H]2CSC(=O)N2)C[C@H]2C[C@@H](CC[C@H](C)/C=C\C=C\CC/C(C)=C\C(=O)O2)O1
IC50 [1]: 9230 nM
IC50 (MDA-MB-231): 23400 nM
inhibition [2]: 6%
inhibition (Homo sapiens): 21%

IC50 (KB 3-1): 5.6 nM
SMILES: CC1=CC[C@H]2[C@H](CC[C@]2(C)O)C(C)(C)[C@@H]1CC[C@H]1[C@]2(C)CC[C@@H](O)O[C@H]2CC[C@@]1(C)O

IC50 (HeLa): 32.6 nM
IC50 (P388): 32.6 nM
SMILES: C#C/C=C\CCCCCCC#CC#CCCC/C=C\C#CCO [CALLYSPONGENOL B]

SMILES: COc1cccc2c1C(=O)c1c(O)c3c(c(O)c1C2=O)C[C@@](O)(C(=O)CO)C[C@@H]3O[C@H]1C[C@H](N)[C@H](O)[C@H](C)O1 [DOXORUBICIN HYDROCHLORIDE]
IC50 (HCT-116 [4]): 1.2 nM
IC50 (HepG2 [5]): 1 nM
IC50 (P388): 0.0114 nM

IC50 (HeLa): 20 nM
SMILES: C[C@H]1N[C@@H](C(=O)O)Cc2c1[nH]c1ccc(O)cc21 [HYRTIOERECTINE B]

SMILES: CO[C@]1([C@@H]2CSC(=O)N2Cc2ccccc2)C[C@H]2C[C@@H](CC[C@H](C)/C=C\C=C\CC/C(C)=C\C(=O)O2)O1
IC50 [1]: 333 nM
IC50 (MDA-MB-231): 6820 nM
inhibition [2]: 33%
IC50 (MCF7 [3]): 780 nM
inhibition (Homo sapiens): 67%

SMILES: CC1=C(CC[C@H]2[C@]3(C)CC[C@H](O)C(C)(C)O[C@H]3CC[C@]2(C)O)[C@@H]2[C@H](CC1OO)[C@@](C)(O)CCC2(C)C (some centres not stated)
IC50 (KB 3-1): 4.7 nM

IC50 (HCT-116 [6]): 3400 nM
IC50 (MCF7 [7]): 3300 nM
IC50 (HepG2 [8]): 1700 nM
SMILES: CC1(C)CCC[C@]2(C)[C@H]3C[C@@H](O)[C@]4(C)[C@H](C=O)C(C=O)=CC[C@H]4[C@]3(C)CC[C@@H]12

SMILES: C/C1=C/C(=O)O[C@@H]2C[C@@H](CC[C@H](C)/C=C\C=C\CC1)O[C@@](O)([C@@H]1CSC(=O)N1)C2 [LATRUNCULIN A]
IC50 [1]: 284 nM
IC50 (MDA-MB-231): 4190 nM
inhibition [2]: 30%
IC50 (MCF7 [3]): 480 nM
inhibition (Homo sapiens): 70%

SMILES: COc1ccc(CC(=O)N2C(=O)SC[C@H]2[C@@]2(OC)C[C@H]3C[C@@H](CC[C@H](C)/C=C\C=C\CC/C(C)=C\C(=O)O3)O2)cc1
IC50 [1]: > 10000 nM
IC50 (MDA-MB-231): 26200 nM
inhibition [2]: 0%
inhibition (Homo sapiens): 13%

IC50 (HeLa): 26 nM
SMILES: O=C(O)C(=O)c1c(-c2c[nH]c3cc(O)ccc23)ncc2[nH]c3ccc(O)cc3c12

IC50 (HeLa): 12.8 nM
IC50 (P388): 7.2 nM
SMILES: C#C/C=C\CCCC/C=C\C#CC#CCCC/C=C\C#CCO [CALLYSPONGENOL C]

IC50 (HeLa): 20 nM
SMILES: O=C(O)[C@H](O)Cc1c[nH]c2ccc(O)cc12 [HYRTIOERECTINE C]

SMILES: C=C(CCCC(C)(C)O)C(=O)CC[C@@]1(C)CC[C@@H]([C@H](C)C(=O)OC)OO1 [AIKUPIKOXIDE D]
IC50 (A549): ≥ 1 µg/mL
IC50 (HT-29): ≥ 1 µg/mL
IC50 (P388): ≥ 1 µg/mL

SMILES: CCN1C(=O)SC[C@H]1[C@@]1(OC)C[C@H]2C[C@@H](CC[C@H](C)/C=C\C=C\CC/C(C)=C\C(=O)O2)O1
IC50 [1]: > 10000 nM
IC50 (MDA-MB-231): > 50000 nM
inhibition [2]: 0%
inhibition (Homo sapiens): 18%

SMILES: C=C(OO)C(C)CC[C@@]1(C)C(CC[C@H]2[C@]3(C)CC[C@H](O)C(C)(C)O[C@H]3CC[C@@]2(C)O)=C(C)CC[C@H]1O (some centres not stated)
IC50 (KB 3-1): 4.6 nM

SMILES: CO[C@]1([C@@H]2CSC(=O)N2CCCO)C[C@H]2C[C@@H](CC[C@H](C)/C=C\C=C\CC/C(C)=C\C(=O)O2)O1
IC50 [1]: 8550 nM
IC50 (MDA-MB-231): > 50000 nM
inhibition [2]: 0%
inhibition (Homo sapiens): 21%

IC50 (HCT-116 [6]): 57500 nM
IC50 (MCF7 [7]): 32600 nM
IC50 (HepG2 [8]): 21800 nM
SMILES: CC(=O)O[C@@H]1C[C@@H]2[C@@]3(C)CCCC(C)(C)[C@@H]3CC[C@@]2(C)[C@@H]2C[C@H](O)C3=C([C@H](O)OC3=O)[C@@]12C

IC50 (KB 3-1): 4.7 nM
SMILES: C[C@@H]1C(=O)C[C@H]2[C@@H](/C1=C/C[C@H]1[C@]3(C)CC[C@H](O)C(C)(C)O[C@H]3CC[C@]1(C)O)C(C)(C)CC[C@]2(C)O [SIPHOLENOL J]

IC50 (HeLa): 16.9 nM
IC50 (P388): 7.3 nM
SMILES: C#C/C=C\CCCCC#CC#CC#CCCC/C=C\C#CCO [DEHYDROISOPHONOCHALYNOL]

IC50 (HCT-116 [6]): 26100 nM
IC50 (MCF7 [7]): 24000 nM
IC50 (HepG2 [8]): 19200 nM
SMILES: CC(=O)O[C@H]1C[C@H]2[C@]3(C)CC[C@H]4C(C)(C)CCC[C@]4(C)[C@H]3C[C@@H](O)[C@]2(C)C2=C1COC2=O [SESTERSTATIN 7]

From ChEMBL document CHEMBL5149985, “Discovery of cytotoxic natural products from Red Sea sponges: Structure and synthesis” (Eur J Med Chem, 2021)
